Molecular target: T1, OGA (Homo sapiens, UniProt O60502)
T1 construct: HEK293 cells inducible for P301L mutant human Tau (isoform 2N4R) were established at Janssen; endogenous in cells; host or cells: HEK293 cells inducible for P301L mutant human Tau (2N4R)
T1 sequence (O60502 1-916): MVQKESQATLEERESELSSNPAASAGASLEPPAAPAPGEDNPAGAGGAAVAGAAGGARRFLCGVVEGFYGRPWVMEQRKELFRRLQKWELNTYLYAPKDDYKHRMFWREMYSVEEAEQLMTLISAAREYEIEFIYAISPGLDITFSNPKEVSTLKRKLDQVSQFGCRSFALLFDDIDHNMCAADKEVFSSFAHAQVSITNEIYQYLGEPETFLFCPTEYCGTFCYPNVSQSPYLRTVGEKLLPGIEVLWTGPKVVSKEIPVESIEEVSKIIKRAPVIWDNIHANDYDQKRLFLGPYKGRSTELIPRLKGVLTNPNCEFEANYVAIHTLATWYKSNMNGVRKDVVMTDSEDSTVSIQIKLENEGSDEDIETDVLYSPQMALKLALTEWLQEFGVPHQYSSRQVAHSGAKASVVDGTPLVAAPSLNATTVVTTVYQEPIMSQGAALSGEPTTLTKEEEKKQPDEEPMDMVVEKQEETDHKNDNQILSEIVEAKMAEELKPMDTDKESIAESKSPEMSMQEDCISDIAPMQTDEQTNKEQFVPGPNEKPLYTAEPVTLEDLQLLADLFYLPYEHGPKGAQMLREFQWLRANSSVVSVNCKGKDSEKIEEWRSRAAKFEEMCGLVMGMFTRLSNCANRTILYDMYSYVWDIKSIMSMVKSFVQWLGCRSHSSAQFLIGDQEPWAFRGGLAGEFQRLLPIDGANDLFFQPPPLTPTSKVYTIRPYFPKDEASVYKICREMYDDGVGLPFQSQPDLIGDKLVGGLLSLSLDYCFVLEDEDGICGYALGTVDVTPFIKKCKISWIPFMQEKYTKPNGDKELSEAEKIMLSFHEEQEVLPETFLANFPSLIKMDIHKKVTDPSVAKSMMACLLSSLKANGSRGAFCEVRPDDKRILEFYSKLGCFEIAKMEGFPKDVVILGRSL
Test: OGA cellular assay (ICC detection of O-GlcNAcylated proteins in HEK293 cells inducible for P301L mutant human Tau)
Format: cell-based
Method in brief: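 HEK293 cells inducible for P301L Tau (2N4R), seeded in low-glucose medium, treated with compound for 6 h at 0.2% DMSO. O-GlcNAc immunostained with CTD110.6 after PFA fixation; 488 nm intensity imaged, Hoechst nuclei counted for toxicity. IC50 by non-linear regression, 200 uM Thiamet G as maximum.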

What does the source list for `Cc1cc(C2CCCN(C(C)c3ccc4sc(C)nc4n3)C2)cc(C)n1` (racemic) [Compound 39]?
Emax (HEK293, HEK293 cells inducible for P301L mutant human Tau, maximum = Thiamet G 200 uM): 79%; EC50 (HEK293 cells inducible for P301L mutant human Tau, 6 hours incubation, read-out: Cellular hOGA, pEC50 (converted)): 0.0631 µM
